The target of one test is BRD4(BD1) (Homo sapiens (Human), UniProt O60885). Briefly: BRD4(BD1) biochemical binding assay (HTRF). The settings on record: biotinylated H4 derived acetylated peptide. The procedure:
1. BRD4(BD1) Binding Assays
The BRD4(BD1) biochemical binding assay was performed by Sundia MediTech Co. Ltd. in 384-well white plate (OptiPlate-384, PerkinElmer) using HTRF technology.
Briefly, 20 nL of compounds were transferred to the 384-well plate by Echo® 550 liquid handler (Labcyte, USA), then 5 μL of BRD4(BD1) (Reaction Biology Company, RD-11-157) solution or the assay buffer was added to each well. After incubating at RT for 15 min, 5 μL of the biotinylated H4 derived acetylated peptide (synthesized by GL Biochem (Shanghai) Ltd) and 10 μL of the detection solution (Cisbio Assay) were added to each well. After incubating for 1 h at RT, the HTRF signal was measure at 615 nm and 665 nm using the EnVision Multilabel Plate Reader (PerkinElmer, USA). Results were analyzed with a two-wavelength signal ratio: intensity (665 nm)/intensity (615 nm). The inhibition percentage in the presence of the compound was calculated according to the equation, Percent inhibition=(Max−Signal)/(Max−Min)*100%. Fit the data in GraphPad Prism V5.0 software (San Diego, Calif.) to obtain IC50 values with nonlinear regression analysis using equation, Y=Bottom+(Top−Bottom)/(1+10^((Log IC50−X)×HillSlope), where Y stands for inhibition percentage and X stands for compound concentration.

A further test concerns MV-4-11 cells. Briefly: MV-4-11 cell proliferation assay (MTS). It counts as cell-based. The following applies: Homo sapiens, MV4-11, 72 h, 3 days culture. The procedure:
2. Cell Proliferation Assay
MV-4-11 cell proliferation analysis was conducted by the MIS (3-(4,5-dimethylthiazol-2-yl)-5-(3-carboxymethoxyphenyl)-2-(4-sulfophenyl)-2H-tetrazolium, inner salt) assay. Briefly, MV-4-11 cells will be cultured in IMDM (Iscove's Modified Dubecco's Medium) medium supplemented with 10% (v/v) FBS (fetal bovine serum), under the temperature of 37° C., […] and 95% humidity. The cells will be harvested respectively during the logarithmic growth period and counted with hemocytometer. The cell viability is over […] by trypan blue exclusion. Adjust MV-4-11 cells concentrations to 1.2×10^5 cells/mL with complete medium. Add 100 μL cell suspensions to 96-well plates (triplicates for each cell concentration), the final cell densities are 1.2×10^4 cells/well. The next day, dissolve the test compound with DMSO as stock solution. Dispense 5 μL of the stock solution in 1 mL culture media and add 25 μL drug media into 96-well plates. After serially diluting with culture media, the final concentration of the compound will be 0, 0.03, 0.1, 0.3, 1, 3, 10, 30, 100 nM. The plates will be cultured for 3 days, then measured by means of MTS assay. Add PMS (phenazinium methosulfate) solution to MITS solution (1:20) immediately before addition to the culture plate containing cells. Pipet 20 μL of the combined MTS/PMS Solution into each well of the 96 well assay plate containing 100 μL of cells in culture medium. Incubate the plate for 1-4 hours at 37° C. in a humidified, 5% CO2 atmosphere. Record the absorbance at 490 nm using a microplate spectrophotometer (Envision®, PeikinElmer). Fit the data using GraphPad 5.0 and obtain IC50 values.

As to `Cc1nnn(C)c1-c1cnc2c3c(c(C(C)(C)O)nn3C)n(C(CCC(F)(F)F)c3cocn3)c2c1` (stereo not drawn) [Compound 10, 2-(6-(1,4-dimethyl-1H-1,2,3-triazol-5-yl)-1-methyl-4-(4,4,4-trifluoro-1-(oxazol-4-yl)butyl)-1,4-dihydropyrazolo[3′,4′:4,5]pyrrolo[3,2-b]pyridin-3-yl)propan-2-ol], the IC50 was found to be 2.2 nM at BRD4(BD1) and 34 nM in the test on MV-4-11 cells.
Taken in the same sequence, the figures for `Cc1cccnc1C(CCC(F)(F)F)n1c2cc(-c3c(C)nnn3C)cnc2c2c1c(C(C)(C)O)nn2C` (stereo not drawn) [Compound 11, 2-(6-(1,4-dimethyl-1H-1,2,3-triazol-5-yl)-1-methyl-4-(4,4,4-trifluoro-1-(3-methylpyridin-2-yl)butyl)-1,4-dihydropyrazolo[3′,4′:4,5]pyrrolo[3,2-b]pyridin-3-yl)propan-2-ol] were 1.3 nM and 7.66 nM.
Taken in the same sequence, the figures for `Cc1nc(C(C2CCOCC2)n2c3cc(-c4c(C)nnn4C)cnc3c3c2c(C(C)(C)O)nn3C)co1` (stereo not drawn) [Compound 12, 2-(6-(1,4-Dimethyl-1H-1,2,3-triazol-5-yl)-1-methyl-4-((2-methyloxazol-4-yl)(tetrahydro-2H-pyran-4-yl)methyl)-1,4-dihydropyrazolo[3′,4′:4,5]pyrrolo[3,2-b]pyridin-3-yl)propan-2-ol] were 1.6 nM and 10.5 nM.
Taken in the same sequence, the figures for `Cc1nnn(C)c1-c1cnc2c3[nH]nc(C(C)(C)O)c3n([C@H](c3ncccc3F)C3CCOCC3)c2c1` [Compound 13, (S)-2-(6-(1,4-Dimethyl-1H-1,2,3-triazol-5-yl)-4-((3-fluoropyridin-2-yl)(tetrahydro-2H-pyran-4-yl)methyl)-1,4-dihydropyrazolo[3′,4′:4,5]pyrrolo[3,2-b]pyridin-3-yl)propan-2-ol] were 0.4 nM and 1.15 nM.
As for `Cc1nnn(C)c1-c1cnc2c3c(c(C(=O)N(C)C)nn3C)n(C(c3ccccc3)C3CCOCC3)c2c1` (stereo not drawn) [Compound 15, 6-(1,4-Dimethyl-1H-1,2,3-triazol-5-yl)-N,N,1-trimethyl-4-(phenyl(tetrahydro-2H-pyran-4-yl)methyl)-1,4-dihydropyrazolo[3′,4′:4,5]pyrrolo[3,2-b]pyridine-3-carboxamide], the IC50 on BRD4(BD1) was found to be 0.61 nM; in the test on MV-4-11 cells it was 25.1 nM.
Taken in the same sequence, the figures for `Cc1nnn(C)c1-c1cnc2c3c(c(C(N)=O)nn3C)n(C(c3ccccc3)C3CCOCC3)c2c1` (stereo not drawn) [Compound 16, 6-(1,4-Dimethyl-1H-1,2,3-triazol-5-yl)-1-methyl-4-(phenyl(tetrahydro-2H-pyran-4-yl)methyl)-1,4-dihydropyrazolo[3′,4′:4,5]pyrrolo[3,2-b]pyridine-3-carboxamide] were 0.3 nM and 3.6 nM.
With `CNC(=O)c1nn(C)c2c3ncc(-c4c(C)nnn4C)cc3n(C(c3ccccc3)C3CCOCC3)c12` (stereo not drawn) [Compound 17, 6-(1,4-dimethyl-1H-1,2,3-triazol-5-yl)-N,1-dimethyl-4-(phenyl(tetrahydro-2H-pyran-4-yl)methyl)-1,4-dihydropyrazolo[3′,4′:4,5]pyrrolo[3,2-b]pyridine-3-carboxamide], the IC50 at BRD4(BD1) amounted to 0.55 nM; in the test on MV-4-11 cells, 12.7 nM.
Taken in the same sequence, the figures for `Cc1nnn(C)c1-c1cnc2c3c(c(C(C)(C)N)nn3C)n(C(c3ccccc3)C3CCOCC3)c2c1` (stereo not drawn) [Compound 18, 2-(6-(1,4-Dimethyl-1H-1,2,3-triazol-5-yl)-1-methyl-4-(phenyl(tetrahydro-2H-pyran-4-yl)methyl)-1,4-dihydropyrazolo[3′,4′:4,5]pyrrolo[3,2-b]pyridin-3-yl)propan-2-amine] were 1.1 nM and 3.93 nM.
Taken in the same sequence, the figures for `CCC(O)(CC)c1nn(C)c2c3ncc(-c4c(C)nnn4C)cc3n(C(c3ccccc3)C3CCOCC3)c12` (stereo not drawn) [Compound 19, 3-(6-(1,4-Dimethyl-1H-1,2,3-triazol-5-yl)-1-methyl-4-(phenyl(tetrahydro-2H-pyran-4-yl)methyl)-1,4-dihydropyrazolo[3′,4′:4,5]pyrrolo[3,2-b]pyridin-3-yl)pentan-3-ol] were 0.79 nM and 7.17 nM.
Taken in the same sequence, the figures for `COc1cccnc1C(C1CCOCC1)n1c2cc(-c3c(C)nnn3C)cnc2c2c1c(C(C)(C)O)nn2C` (stereo not drawn) [Compound 26, 2-(6-(1,4-Dimethyl-1H-1,2,3-triazol-5-yl)-4-((3-methoxypyridin-2-yl)(tetrahydro-2H-pyran-4-yl)methyl)-1-methyl-1,4-dihydropyrazolo[3′,4′:4,5]pyrrolo[3,2-b]pyridin-3-yl)propan-2-ol] were 0.68 nM and 0.91 nM.
For `CC(=O)Nc1nn(C)c2c3ncc(-c4c(C)nnn4C)cc3n([C@H](c3ccccc3)C3CCOCC3)c12` [Compound 29, (S)—N-(6-(1,4-dimethyl-1H-1,2,3-triazol-5-yl)-1-methyl-4-(phenyl(tetrahydro-2H-pyran-4-yl)methyl)-1,4-dihydropyrazolo[3′,4′:4,5]pyrrolo[3,2-b]pyridin-3-yl)acetamide], the IC50 on BRD4(BD1) was determined as 1.9 nM; in the test on MV-4-11 cells it was 24.7 nM.
In the case of `Cc1nnn(C)c1-c1cnc2c3c(c(CN4CCOCC4)nn3C)n(C(c3ccccc3)C3CCOCC3)c2c1` (stereo not drawn) [Compound 34, 4-((6-(1,4-dimethyl-1H-1,2,3-triazol-5-yl)-1-methyl-4-(phenyl(tetrahydro-2H-pyran-4-yl)methyl)-1,4-dihydropyrazolo[3′,4′:4,5]pyrrolo[3,2-b]pyridin-3-yl)methyl)morpholine], the figures for the IC50 on BRD4(BD1) and in the test on MV-4-11 cells were 0.34 nM and 2.16 nM, respectively.

One may read the IC50 as the concentration needed to halve the response being measured. A higher IC50 goes with a need for much substance.

These data come from patent US11466005B2, “Tricyclic compounds” (JACOBIO PHARMACEUTICALS CO., LTD., priority 2018, dated 2022).
